The subject of data set [1] is activated primary T cells. The experiment in a line: Navitoclax-induced cell death (Sytox-negative cell count after 72 hours). The class given is cell-based, human. The note with it: Younger T cells (day 12) compared with Older T cells (day 24). On the procedure: Activated primary T cells were treated with the indicated amount of Navitoclax. Navitoclax is a senolytic drug selectively targeting senescent cells (Zhu et al., Aging Cell, 2016). After 72 hours, Sytox-negative T cells were counted by flow cytometry using MACSQuant (Myltenyi Biotec). […] In each experiment two different primary T cell cultures were tested for each condition (four replicas for each condition). DMSO is a negative control. Navitoclax (cat #HY-10087) was purchased from MCE. Primary T cells were activated as described (Example 3) and transduced with a lentivirus encoding either a shUSP16 or a non-targeting shRNA (shC). T cells were then treated with the indicated amount of Navitoclax. After 72 hours, Sytox-negative GFP+ cells were counted, and the numbers of dead cells were calculated as 100%−(#treated/#untreated) cells. Two different time points were tested (day 12, day 22) with two different primary T cell cultures (four replicas per each condition).

For the next data set, the system named is primary T cells. The experiment in a line: Stem cell memory T cell phenotype by flow cytometry (CD45RA+CD62L+). To be noted: CRISPR knockout, day 15 post-activation. Type of data set: cell-based, human. On the procedure: Primary T cells were activated as described (Example 3), transduced with a lentivirus encoding for either a shUSP16 or a non-targeting shRNA (Ctrl) and sorted for GFP on day 8. Cells were cultured in the presence of IL-2 and their phenotype was analyzed at day 20. Cells were stained for CD4-PerCP-5.5 or CD8-BV510, CD62L-Allophycocyanin, CD45RA-BV510 or PE-Cy7 (Biolegend). Naïve or stem cell memory T cells (TNa/SCM) were identified as Sytox^− GFP^+CD45RA^+CD62L^+. Number of TNa/SCM was calculated as (#CD4 or CD8 T cells*TNa/SCMpercentage)/100. Flow cytometry was performed on the MACQuant (Myltenyi Biotec) and the data analyzed with FlowJo (shCtrl vs shUSP CD4: 0.4978 vs 0.7915, p=0.0673 and CD8: 2.469 vs 4.984, p=0.00392, n=7). Downregulation of USP16 expression increases the number of CD4+CD45RA+CD62L+(FIG. 11A) and CD8+CD45RA+CD62L+(FIG. 11B) cells in culture by 1.7 (p=0.0205) and 1.9 (p=0.0097) times, respectively.
Primary T cells were activated as described (Example 3), transduced with a lentivirus encoding either a shUSP16 #1, shUSP16 #2 or a non-targeting shRNA (shCtrl) and cells were selected with puromycin at day 6. At day 15 cell were collected and analyzed by qPCR for the expression of LEF1 (FIG. 16A) and TCF7 (FIG. 16B), downstream regulators of the WNT pathway. At day 20, cells were stained for CD4-PE, CD8-BV510, CD62L-Allophycocyanin and CD45RA-APC-Cy7 (Biolegend). Stem cell memory T cells (Tscm) were identified as Sytox^− GFP^+CD45RA^+CD62L^+, central memory T cells (Tcm) as Sytox^−GFP^+CD45RA^−CD62L^+, effector memory T cells (Tem) as Sytox^−GFP^+CD45RA^−CD62L^−, and terminal effector T cell (Teff) as Sytox^−GFP^+CD45RA^+CD62L^− (FIG. 17A). Cells were gated on the CD8 population. The specific increase of Tscm was shown as phenotype ratio (FIG. 17B).
Primary T cells were activated as described (Example 3). At Day 6 post-activation, dynabeads were removed and T cells electroporated using the Neon Transfection System (ThermoFisher) with a 2.5:1 ratio sgRNA:Cas9. The experiment was performed following the protocol optimized for primary T cell by Synthego (CRISPR Editing Human Primary CD4+ T cells with RNPs using Neon Electroporation Protocol, 2018 version). The sgRNA used are the following: gUSP16 #1 5′-[…]-3′ (SEQ ID NO: 10) and gSynthego that comprises 3 different sgRNAs (gRNA-A: 5′-[…] 3′ (SEQ ID NO: 11); gRNA-B: 5′-[…]-3′ (SEQ ID NO: 12); gRNA-C: 5′-[…]-3′ (SEQ ID NO: 13)). Control T cells, identified as Mock, were electroporated but no Cas9:sgRNA mixture was added. […] At day 15 post-activation, cells were stained for CD4-PE, CD8-BV510, CD62L-Allophycocyanin and CD45RA-APC-Cy7 (Biolegend). Stem cell memory T cells (Tscm) were identified as Sytox^−GFP^+CD45RA^+CD62L^+ and graphed as ratio compared to mock cells (FIG. 22). The experiment was repeated using primary T cells obtained from buffy coats of 2 different healthy donors.
Primary T cells were activated as described (Example 3), transduced with a lentivirus encoding for either a CD19.CAR or a GD2.CAR co-expressing shUSP16 #1, shUSP16 #2 or a scrambled shRNA (Control). At day 15, GD2.CAR and CD19.CAR T cells were stained for EGFR-AF488 (R&D), CD3-PE, CD8-BV510, CD62L-Allophycocyanin and CD45RA-APC-Cy7 (Biolegend). Stem cell memory T cells (Tscm) were identified as FITC^+CD45RA^+CD62L^+, central memory T cells (Tcm) as FITC^+CD45RA^−CD62L^+, effector memory T cells (Tem) as FITC^+CD45RA^−CD62L^−, and terminal effector T cell (Teff) as FITC^+CD45RA^+CD62L^−. Cells were gated on the CD8 population. The specific increase of Tscm was shown as phenotype ratio (FIGS. 28A and 28B).
For orientation: Flow cytometry measures light scatter and fluorescence of single cells or particles in a stream.

Turning to `CC1(C)CCC(c2ccc(Cl)cc2)=C(CN2CCN(c3ccc(C(=O)NS(=O)(=O)c4ccc(N[C@H](CCN5CCOCC5)CSc5ccccc5)c(S(=O)(=O)C(F)(F)F)c4)cc3)CC2)C1` [Navitoclax], the “sensitivity to Navitoclax-induced cell death” value in data set [1] is given as “less sensitive”. For “gSynthego: comprises 3 different sgRNAs (gRNA-A, gRNA-B, gRNA-C; SEQ ID NO: 11-13), electroporated with Cas9 (guide 1 GUGUGCAGACACAUUAGAAA; guide 2 UAUUGUCAGUCUUACAGUCU; guide 3 GUUUGGCUGUGUCUUAAAUG; listed as RNA, chemistry not given here)”, the “stem cell memory T cells, ratio compared to mock cells” value in the data set with primary T cells came out at 1.49.

In the case of “gUSP16 #1: sgRNA 5′-UGGCGUCAGAUAGUGCUUCA-3′ (SEQ ID NO: 10), electroporated with Cas9 (listed as RNA, chemistry not given here)”, the “stem cell memory T cells, ratio compared to mock cells” value with primary T cells turned out to be 1.178.

The values are drawn from patent US20210290680A1, “METHODS AND COMPOSITIONS FOR MODULATING CELLULAR AGING” (Dorian Therapeutics, Inc., priority 2019, published 2021).
